{"source": "paper PMC10898118", "about": "“Biocatalytic cascade to polysaccharide amination” (Biotechnology for Biofuels and Bioproducts, 2024)", "biological_target": "T1, CvATA (Chromobacterium violaceum, UniProt Q7NWG4)", "T1 construct": "gene CV_2025; dimer", "T1 sequence (Q7NWG4 1-459)": "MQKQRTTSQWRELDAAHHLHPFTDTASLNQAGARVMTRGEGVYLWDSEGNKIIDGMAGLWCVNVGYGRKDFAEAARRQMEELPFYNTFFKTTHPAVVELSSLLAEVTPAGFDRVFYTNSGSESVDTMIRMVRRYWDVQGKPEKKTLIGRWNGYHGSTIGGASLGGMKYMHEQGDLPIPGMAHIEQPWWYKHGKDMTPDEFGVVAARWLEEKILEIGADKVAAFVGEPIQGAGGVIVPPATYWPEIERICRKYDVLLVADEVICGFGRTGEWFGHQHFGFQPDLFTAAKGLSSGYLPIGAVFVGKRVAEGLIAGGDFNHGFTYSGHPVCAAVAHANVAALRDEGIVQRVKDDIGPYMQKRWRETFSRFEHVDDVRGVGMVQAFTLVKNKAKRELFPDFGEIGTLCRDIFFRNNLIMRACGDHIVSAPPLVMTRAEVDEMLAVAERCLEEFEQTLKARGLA", "experiment": "acetophenone assay, UV […] nm", "assay_type": "biochemical", "conditions": "5 mM galactose pre-oxidized in situ by FgrGaOx (catalase, HRP), 5 mM (S)-1-phenylethylamine, 20 µM PLP, 50 mM HEPES pH 7.5, 37 °C"}
{"smiles": "O=C[C@@H](O)[C@H](O)[C@H](O)[C@@H](O)C=O", "note": "[oxidized galactose]", "values": [{"measurement": "acetophenone assay, UV 245 nm", "value": "initial activity of CvATA on pyruvate and oxidized galactose"}]}
